Measurements taken from US20250163104A1, “MACROCYCLIC IMMUNOMODULATORS” (priority 2021, published 2025).
Where a SMILES comes first, the peptide text is derived from it. Bridges are numbered along the chain shown (N, C = ends). [ ]: non-standard residue; d: D form. The star is where a group is joined. Phe(3-CF3) = N[C@@H](Cc1cccc(C(F)(F)F)c1)C(=O)O; Phe(4-COOH) = N[C@@H](Cc1ccc(C(=O)O)cc1)C(=O)O; Bip = N[C@@H](Cc1ccc(-c2ccccc2)cc1)C(=O)O; Phe(3-Me) = Cc1cccc(C[C@H](N)C(=O)O)c1; Val(3-OH) = CC(C)(O)[C@H](N)C(=O)O; 3Pal = N[C@@H](Cc1cccnc1)C(=O)O; 4Pal = N[C@@H](Cc1ccncc1)C(=O)O; Cha = N[C@@H](CC1CCCCC1)C(=O)O; dCha = N[C@H](CC1CCCCC1)C(=O)O; Ahp(2) = CCCCC[C@H](N)C(=O)O; Carboxymethyl = O=C(O)C*; Nle = CCCC[C@H](N)C(=O)O; Orn = NCCC[C@H](N)C(=O)O; Pra = C#CC[C@H](N)C(=O)O; dDap = NC[C@@H](N)C(=O)O; Dab = NCC[C@H](N)C(=O)O; Dap = NC[C@H](N)C(=O)O

The compounds below were run against T1, human PD-1 / PD-L1-Ig binding on Jurkat cell line over-expressing human PD-1 (Jurkat-PD-1) (Homo sapiens, UniProt Q15116) (assay: Jurkat-PD-1 Cell Binding High-Content Screening Assay (CBA)). Conditions: Jurkat-PD-1 cells, PE-labeled PD-L1-Ig 20 nM final; read-out: Jurkat HPD1_PDL1 IC50.
T1 construct: expressed in transfected cells; host or cells: Jurkat
T1 sequence (Q15116 25-288): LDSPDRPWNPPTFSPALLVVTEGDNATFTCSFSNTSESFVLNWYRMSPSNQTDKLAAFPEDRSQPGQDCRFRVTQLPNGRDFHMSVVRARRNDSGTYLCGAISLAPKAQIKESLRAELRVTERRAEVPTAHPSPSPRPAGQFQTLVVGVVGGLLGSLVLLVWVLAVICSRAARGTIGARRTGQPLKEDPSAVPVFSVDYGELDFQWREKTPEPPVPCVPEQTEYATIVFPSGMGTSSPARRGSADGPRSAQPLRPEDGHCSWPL
Assay type: cell-based
How it was run: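 Compounds were preincubated with Jurkat-hPD-1 cells in DMEM plus 10% fetal calf serum for 2 h at 37° C. Phycoerythrin-labeled PD-L1-Ig (20 nM final) was then added for 1 hour. Cells were fixed in 4% paraformaldehyde with Hoechst 33342, and bound fluorescence was quantified by high-content imaging.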
Compound `C#CC[C@H](NC(=O)[C@H](CCN)NC(=O)[C@@H]1CSCC(=O)N[C@@H](CC(C)C)C(=O)N[C@@H](Cc2ccc(C(=O)O)cc2)C(=O)N[C@@H](CC(=O)O)C(=O)N[C@@H](Cc2cccc(C)c2)C(=O)N[C@@H](Cc2ccc(C(=O)O)cc2)C(=O)N[C@@H](Cc2ccc(-c3ccccc3)cc2)C(=O)N[C@@H](Cc2ccc(C(=O)O)cc2)C(=O)N[C@@H](CCCN)C(=O)N[C@H](CC(C)C)C(=O)N[C@@H](CCN)C(=O)N[C@@H](CC2CCCCC2)C(=O)N[C@@H](C(C)C)C(=O)N[C@@H](CCC(=O)O)C(=O)N1)C(=O)O` [Compound 2706] ({CH2CO}-L[Phe(4-COOH)]D[Phe(3-Me)][Phe(4-COOH)][Bip][Phe(4-COOH)][Orn][dL][Dab][Cha]VEC[Dab][Pra]-OH; thioether N-14) has an IC50 of 2.4 nM. Work on `CC[C@H](C)[C@@H]1NC(=O)[C@H](Cc2ccc(-c3ccccc3)cc2)NC(=O)[C@H](C(C)C)NC(=O)[C@H](Cc2cccc(C(F)(F)F)c2)NC(=O)[C@H](CC(=O)O)NC(=O)[C@H](Cc2ccncc2)NC(=O)[C@H](CN)NC(=O)CSC[C@@H](C(=O)N[C@@H](C)C(N)=O)NC(=O)[C@H]([C@@H](C)O)NC(=O)[C@H](C(C)C)NC(=O)[C@H](CC2CCCCC2)NC(=O)[C@H](CCN)NC(=O)[C@@H](CC(C)C)NC(=O)[C@H](CCCN)NC1=O` [Compound 1564] ({CH2CO}-[Dap][4Pal]D[Phe(3-CF3)]V[Bip]I[Orn][dL][Dab][Cha]VTCA-NH2; thioether N-14) yielded an IC50 of 36.1 nM. Compound `CC(C)C[C@@H]1NC(=O)[C@H](CCCCN)NC(=O)[C@@H](CC(C)C)NC(=O)[C@H](CCCN)NC(=O)[C@H](Cc2cnc[nH]2)NC(=O)[C@H](Cc2ccc(-c3ccccc3)cc2)NC(=O)[C@H](C(C)C)NC(=O)[C@H](Cc2c[nH]c3ccccc23)NC(=O)[C@H](CC(=O)O)NC(=O)[C@H](Cc2ccc(O)cc2)NC(=O)[C@H](CC(N)=O)NC(=O)CSC[C@@H](C(=O)NCC(N)=O)NC(=O)[C@H]([C@@H](C)O)NC(=O)[C@H](C(C)C)NC1=O` [Compound 1136] ({CH2CO}-NYDWV[Bip]H[Orn][dL]KLVTCG-NH2; thioether N-14) has an IC50 of 50.8 nM. `Cc1cccc(C[C@@H]2NC(=O)[C@H](CC(=O)O)NC(=O)[C@H](Cc3ccc(OCC(=O)O)cc3)NC(=O)[C@H](Cc3ccc(OCC(=O)O)cc3)NC(=O)CSC[C@@H](C(=O)N[C@@H](C)C(N)=O)NC(=O)[C@H]([C@@H](C)O)NC(=O)[C@H](C(C)C)NC(=O)[C@H](CC(C)C)NC(=O)[C@H](CCN)NC(=O)[C@@H](CC(C)C)NC(=O)[C@H](CCCN)NC(=O)[C@H](C(C)C)NC(=O)[C@H](Cc3ccc(-c4ccccc4)cc3)NC(=O)[C@H](C(C)C)NC2=O)c1` [Compound 1220] ({CH2CO}-Y(Carboxymethyl)Y(Carboxymethyl)D[Phe(3-Me)]V[Bip]V[Orn][dL][Dab]LVTCA-NH2; thioether N-14) was tested, and the IC50 was 5.1 nM. `CC(C)C[C@H]1NC(=O)[C@H](CCCN)NC(=O)[C@H](CCC(=O)O)NC(=O)[C@H](Cc2ccc(-c3ccccc3)cc2)NC(=O)[C@H](C(C)C)NC(=O)[C@H](Cc2c[nH]c3ccccc23)NC(=O)[C@H](CC(=O)O)NC(=O)[C@H](Cc2ccc(OCC(=O)O)cc2)NC(=O)[C@H](CN)NC(=O)CSC[C@@H](C(=O)N[C@@H](C)C(N)=O)NC(=O)[C@H]([C@@H](C)O)NC(=O)[C@H](C(C)C)NC(=O)[C@H](Cc2cscn2)NC(=O)[C@H](CCN)NC1=O` [Compound 1510] showed an IC50 of 25.7 nM. Work on `CC(C)C[C@@H]1NC(=O)[C@H](CCN)NC(=O)[C@@H](CC(C)C)NC(=O)[C@@H](CN)NC(=O)[C@H](C(C)C)NC(=O)[C@H](Cc2ccc(-c3ccccc3)cc2)NC(=O)[C@H](C(C)C)NC(=O)[C@H](Cc2c[nH]c3ccccc23)NC(=O)[C@H](CC(=O)O)NC(=O)[C@H](Cc2ccc(O)cc2)NC(=O)[C@H](CC(N)=O)NC(=O)CSC[C@@H](C(=O)N[C@@H](C)C(N)=O)NC(=O)[C@H]([C@@H](C)O)NC(=O)[C@H](C(C)C)NC1=O` [Compound 1022] ({CH2CO}-NYDWV[Bip]V[dDap][dL][Dab]LVTCA-NH2; thioether N-14) yielded an IC50 of 17.7 nM. For `CC(C)C[C@H]1NC(=O)[C@H](CCCN)NC(=O)[C@H](CCCNC(N)=O)NC(=O)[C@H](Cc2ccc(-c3ccccc3)cc2)NC(=O)[C@H](C(C)C)NC(=O)[C@H](Cc2c[nH]c3ccccc23)NC(=O)[C@H](CC(=O)O)NC(=O)[C@H](Cc2ccc(O)c([N+](=O)[O-])c2)NC(=O)[C@H](CN)NC(=O)CSC[C@@H](C(=O)N[C@@H](C)C(N)=O)NC(=O)[C@H]([C@@H](C)O)NC(=O)[C@H](C(C)C)NC(=O)[C@H](CC2CCCCC2)NC(=O)[C@H](CCN)NC1=O` [Compound 2113], the IC50 was 14.9 nM. `CC(C)[C@@H]1NC(=O)[C@H](Cc2c[nH]c3ccccc23)NC(=O)[C@H](CC(=O)O)NC(=O)[C@H](Cc2ccc(OCC(=O)O)cc2)NC(=O)[C@H](Cc2ccc(OCC(=O)O)cc2)NC(=O)CSC[C@@H](C(=O)N[C@@H](C)C(N)=O)NC(=O)[C@H]([C@@H](C)O)NC(=O)[C@H](C(C)C)NC(=O)[C@H](CC2CCCCC2)NC(=O)[C@H](CCN)NC(=O)[C@@H](CC2CCCCC2)NC(=O)[C@H](CCCN)NC(=O)[C@H](C(C)C)NC(=O)[C@H](Cc2ccc(-c3ccccc3)cc2)NC1=O` [Compound 1633] ({CH2CO}-Y(Carboxymethyl)Y(Carboxymethyl)DWV[Bip]V[Orn][dCha][Dab][Cha]VTCA-NH2; thioether N-14) gave an IC50 of 20.2 nM. `CC(C)C[C@@H]1NC(=O)[C@H](CCN)NC(=O)[C@@H](CC(C)C)NC(=O)[C@H](CCCN)NC(=O)[C@H](C(C)C)NC(=O)[C@H](Cc2ccc(-c3ccccc3)cc2)NC(=O)[C@H](C(C)C)NC(=O)[C@H](Cc2c[nH]c3ccccc23)NC(=O)[C@H](CC(=O)O)NC(=O)[C@H](Cc2ccc(C(=O)O)cc2)NC(=O)[C@H](Cc2cccnc2)NC(=O)CSC[C@@H](C(=O)N[C@@H](C)C(N)=O)NC(=O)[C@H]([C@@H](C)O)NC(=O)[C@H](C(C)C)NC1=O` [Compound 1049] ({CH2CO}-[3Pal][Phe(4-COOH)]DWV[Bip]V[Orn][dL][Dab]LVTCA-NH2; thioether N-14) showed an IC50 of 7.2 nM. For `C#CC[C@H](NC(=O)[C@H](CCN)NC(=O)[C@@H]1CSCC(=O)N[C@@H](CN)C(=O)N[C@@H](Cc2ccc(OCC(=O)O)cc2)C(=O)N[C@@H](CC(=O)O)C(=O)N[C@@H](Cc2cccc(C)c2)C(=O)N[C@@H](Cc2ccc(OCC(=O)O)cc2)C(=O)N[C@@H](Cc2ccc(-c3ccccc3)cc2)C(=O)N[C@@H](Cc2ccc(OCC(=O)O)cc2)C(=O)N[C@@H](CCCN)C(=O)N[C@H](CC(C)C)C(=O)N[C@@H](CCN)C(=O)N[C@@H](CC2CCCCC2)C(=O)N[C@@H](C(C)(C)O)C(=O)N[C@@H](CO)C(=O)N1)C(N)=O` [Compound 1860] ({CH2CO}-[Dap]Y(Carboxymethyl)D[Phe(3-Me)]Y(Carboxymethyl)[Bip]Y(Carboxymethyl)[Orn][dL][Dab][Cha][Val(3-OH)]SC[Dab][Pra]-NH2; thioether N-14), the IC50 was 3.9 nM. For `CCC(C)[C@@H]1NC(=O)[C@H](Cc2ccc(-c3ccccc3)cc2)NC(=O)[C@H](C(C)C)NC(=O)[C@H](Cc2cc(C)ccc2F)NC(=O)[C@H](CC(=O)O)NC(=O)[C@H](Cc2ccc(OCC(=O)O)cc2)NC(=O)[C@H](CN)NC(=O)CSC[C@@H](C(=O)N[C@@H](C)C(N)=O)NC(=O)[C@H]([C@@H](C)O)NC(=O)[C@H](C(C)C)NC(=O)[C@H](CC2CCCCC2)NC(=O)[C@H](CCN)NC(=O)[C@@H](CC(C)C)NC(=O)[C@H](CCCN)NC1=O` (some centres unmarked) [Compound 2247], the IC50 was 13.3 nM. `Cc1cccc(C[C@@H]2NC(=O)[C@H](CC(=O)O)NC(=O)[C@H](Cc3ccc(OCC(=O)O)cc3)NC(=O)[C@H](Cc3ccncc3)NC(=O)CSC[C@@H](C(=O)N[C@@H](CCN)C(N)=O)NC(=O)[C@H]([C@@H](C)O)NC(=O)[C@H](C(C)(C)O)NC(=O)[C@H](CC3CCCCC3)NC(=O)[C@H](CCN)NC(=O)[C@@H](CC(C)C)NC(=O)[C@H](CCCN)NC(=O)[C@H](Cc3ccc(OCC(=O)O)cc3)NC(=O)[C@H](Cc3ccc(-c4ccccc4)cc3)NC(=O)[C@H](Cc3ccc(OCC(=O)O)cc3)NC2=O)c1` [Compound 2066] ({CH2CO}-[4Pal]Y(Carboxymethyl)D[Phe(3-Me)]Y(Carboxymethyl)[Bip]Y(Carboxymethyl)[Orn][dL][Dab][Cha][Val(3-OH)]TC[Dab]-NH2; thioether N-14) showed an IC50 of 6.1 nM. Work on `C#CC[C@H](NC(=O)[C@H](C)NC(=O)[C@@H]1CSCC(=O)N[C@@H](CCN)C(=O)N[C@@H](Cc2ccc(OCC(=O)O)cc2)C(=O)N[C@@H](CC(=O)O)C(=O)N[C@@H](Cc2cccc(C)c2)C(=O)N[C@@H](Cc2ccc(OCC(=O)O)cc2)C(=O)N[C@@H](Cc2ccc(-c3ccccc3)cc2)C(=O)N[C@@H](Cc2ccc(OCC(=O)O)cc2)C(=O)N[C@@H](CCCN)C(=O)N[C@H](CC(C)C)C(=O)N[C@@H](CCN)C(=O)N[C@@H](CC2CCCCC2)C(=O)N[C@@H](C(C)(C)O)C(=O)N[C@@H](CCCC)C(=O)N1)C(=O)O` [Compound 2696] ({CH2CO}-[Dab]Y(Carboxymethyl)D[Phe(3-Me)]Y(Carboxymethyl)[Bip]Y(Carboxymethyl)[Orn][dL][Dab][Cha][Val(3-OH)][Nle]CA[Pra]-OH; thioether N-14) yielded an IC50 of 17.1 nM. Compound `CCCCC[C@@H]1NC(=O)[C@H](Cc2ccc(-c3ccccc3)cc2)NC(=O)[C@H](C(C)C)NC(=O)[C@H](Cc2c[nH]c3ccccc23)NC(=O)[C@H](CC(=O)O)NC(=O)[C@H](Cc2ccc(C(=O)O)cc2)NC(=O)[C@H](Cc2ccncc2)NC(=O)CSC[C@@H](C(=O)N[C@@H](CC(N)=O)C(N)=O)NC(=O)[C@H](CO)NC(=O)[C@H](C(C)C)NC(=O)[C@H](CC2CCCCC2)NC(=O)[C@H](CCN)NC(=O)[C@@H](C)NC(=O)[C@H](CCCN)NC1=O` [Compound 2541] ({CH2CO}-[4Pal][Phe(4-COOH)]DWV[Bip][Ahp(2)][Orn][dA][Dab][Cha]VSCN-NH2; thioether N-14) has an IC50 of 58.4 nM.
